Test system: Tumorart P 388 (Leukämie)
Assay: Cytostatic activity: survival of mice with i.p. implanted P 388 leukemia (NCI protocol 1200)
Format: in vivo, Mäusen
Conditions: 9-day treatment, P 388 set i.p. with 10⁶ Zellen/Maus, untreated mean survival 10 days
From the text: Die nachfolgenden Versuche wurden durchgeführt nach Testvorschriften des National Cancer Institute Bethesda, Maryland 200014, veröffentlicht in "Cancer Chemotherapy Reports" Part. 3, Sept. 1972, Vol. 3, Nr. 2.
Die Substanz wurde als wäßrige 1 %ige Injektionslösung unmittelbar vor der Applikation frisch hergestellt.
Bei Mäusen wurden gemäß Protokoll 1200 (S. 91 c) die Tumorart P 388 (Leukämie) i.p. mit 10⁶ Zellen/Maus gesetzt. Die unbehandelten Tiere hatten eine mittlere Überlebensdauer von 10 Tagen.
Mit den behandelten Testtieren, die einer 9-tägigen i.p. Behandlung mit der in Tabelle 1 angegebenen Dosis unterworfen wurden, wurde eine signifikante Verlängerung der Lebensdauer gegenüber der mittleren Überlebensdauer der nicht mit dem Wirkstoff behandelten Tiere erzielt. Die Verlängerungsrate T/C in Abhängigkeit von der Dosierung des Wirkstoffes ist nachtstehend tabellarisch zusammengestellt.

Structure (SMILES): O=P(CC1CO1)(CC1CO1)CC1CO1 (stereo not drawn) [Triglycidylphosphinoxid]
- Verlängerungsrate T/C in % (Dosis 15 mg/kg): 243%
- Verlängerungsrate T/C in % (Dosis 3,75 mg/kg): 163%
- Verlängerungsrate T/C in % (Dosis 7,5 mg/kg): 176%
